Experimental data published in patent US7955847B2, “Method for enhancing leukocyte immune function” (priority 2004, dated 2011).

System: leukocyte NADPH oxidase (cytochrome b558)
Assay: Cell surface expression of cytochrome b558 (NADPH oxidase) by flow cytometry with antibody 7D5
Assay type: cell-based, human
Conditions: leukocytes from X91-CGD patient; 2 hrs treatment; anti-cytochrome b558 antibody 7D5, flow cytometry
Procedure: Blood samples with EDTA were obtained from patients with X91-chronic granulomatous disease. The samples were water bathed at 37° C. in a lysate buffer containing ammonium chloride, sodium carbonate and EDTA for several minutes to lyze residual red blood cells. The samples were then added with a suspension buffer containing globulin and EDTA to wash and remove the residual lysate buffer. The leukocytes were collected by centrifugation and counted.
Total leukocytes were maintained in RPMI 1640 medium supplemented with 10% heat-inactivated FBS at 37° C. under a humidified atmosphere (5% CO2+95% air). The leukocytes were seeded at a density of 3 to 5×10^5/ml and grown for 2 hrs in the presence or absence of 100 nM cofactor FAD and/or thapsigargin (100 nM or 1 μM). The cells were then cultured in 10% RPMI to recover for 1 hr prior to the following experiments.
To test whether the treatment with thapsigargin or cofactor FAD alone or in combination has effects on the cell surface expression of leukocyte NADPH oxidase, the cell surface expressions of cytochrome b558 in leukocytes with or without desired treatment were assayed. Leukocytes were prepared as illustrated in Example 1. The leukocytes, at the concentration of 5×10^5 cells/ml, were incubated with anticytochrome b558 monoclonal antibody (7D5) at 4° C. for 30 min, followed by incubation with FITC-labeled goat anti-mouse IgG for 40 min.

`Cc1cc2nc3c(=O)[nH]c(=O)nc-3n(C[C@H](O)[C@H](O)[C@H](O)COP(=O)(O)OP(=O)(O)OC[C@H]3O[C@@H](n4cnc5c(N)ncnc54)[C@H](O)[C@@H]3O)c2cc1C` [cofactor FAD, flavin adenine dinucleotide] was tested, and the “cell surface NADPH oxidase expression” value was “slightly enhanced”.
With `C/C=C(/C)C(=O)O[C@H]1C(C)=C2[C@H]([C@@H]1OC(=O)CCCCCCC)[C@@](C)(OC(C)=O)C[C@H](OC(=O)CCC)[C@@]1(O)[C@H]2OC(=O)[C@@]1(C)O` [thapsigargin] the “cell surface NADPH oxidase expression” value was “slightly enhanced”.
